The molecules below were run against BTK (Homo sapiens (Human), UniProt Q06187) (assay: In vitro BTK kinase assay: BTK-POLYGAT-LS ASSAY). Details: not given.
BTK, sequence (Q06187 whole entry): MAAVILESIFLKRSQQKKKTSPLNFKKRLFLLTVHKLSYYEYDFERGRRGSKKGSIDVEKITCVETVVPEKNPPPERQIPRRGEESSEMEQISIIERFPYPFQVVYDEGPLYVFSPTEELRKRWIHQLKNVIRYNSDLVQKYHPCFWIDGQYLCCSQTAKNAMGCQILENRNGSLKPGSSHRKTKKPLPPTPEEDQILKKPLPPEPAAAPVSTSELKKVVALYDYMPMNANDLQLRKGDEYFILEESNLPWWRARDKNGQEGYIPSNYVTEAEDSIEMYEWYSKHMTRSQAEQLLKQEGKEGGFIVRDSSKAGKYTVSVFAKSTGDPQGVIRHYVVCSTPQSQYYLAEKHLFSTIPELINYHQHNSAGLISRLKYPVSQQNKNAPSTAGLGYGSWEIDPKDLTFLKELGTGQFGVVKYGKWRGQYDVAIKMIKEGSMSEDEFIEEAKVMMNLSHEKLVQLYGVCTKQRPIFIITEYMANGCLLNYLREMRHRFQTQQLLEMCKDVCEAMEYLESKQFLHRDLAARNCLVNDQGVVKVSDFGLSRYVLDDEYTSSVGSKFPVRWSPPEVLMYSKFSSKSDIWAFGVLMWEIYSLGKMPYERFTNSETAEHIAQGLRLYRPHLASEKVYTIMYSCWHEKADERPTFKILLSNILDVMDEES
For C[C@@H](NC(=O)Nc1cccc(C2CCCN(c3ncnc4[nH]ccc34)C2)c1)c1ccccc1 (stereo partly drawn) [Cmpd 43, 1-(3-(1-(7H-pyrrolo[2,3-d]pyrimidin-4-yl)piperidin-3-yl)phenyl)-3-((R)-1-phenylethyl)urea], the IC50 was 1000 to 10000 nM. With O=C(Nc1ccccc1)Nc1cccc(C2CCN(c3ncnc4[nH]ccc34)C2)c1 (centres unmarked) [Cmpd 28, 1-(3-(1-(7H-pyrrolo[2,3-d]pyrimidin-4-yl)pyrrolidin-3-yl)phenyl)-3-phenylurea] the IC50 was 1000 to 10000 nM. With O=C(Nc1cccc(C2CCCN(c3ncnc4[nH]ccc34)C2)c1)Nc1c(F)cccc1N1CCCC1=O (centres unmarked) [Cmpd 51, 1-(3-(1-(7H-pyrrolo[2,3-d]pyrimidin-4-yl)piperidin-3-yl)phenyl)-3-(2-fluoro-6-(2-oxopyrrolidin-1-yl)phenyl)urea] the IC50 was 1000 to 10000 nM. Molecule O=C(Nc1cccc(C2CCCN(c3ncnc4[nH]ccc34)C2)c1)[C@H](O)c1ccccc1 (stereo partly drawn) [Cmpd 19, (2R)—N-(3-(1-(7H-pyrrolo[2,3-d]pyrimidin-4-yl)piperidin-3-yl)phenyl)-2-hydroxy-2-phenylacetamide] has an IC50 of 1000 to 10000 nM. Molecule Nc1ncnc(N2CC[C@H](O)[C@@H](N3CCCC(Nc4cc(Cl)cc(Cl)c4)C3=O)C2)c1F (stereo partly drawn) [compound 325, trans 1′-(6-Amino-5-fluoropyrimidin-4-yl)-3-(3,5-dichlorophenylamino)-4′-hydroxy-1,3′-bipiperidin-2-one] has an IC50 of 100 to 999 nM. In the case of O=C(NC[C@H]1CCCC[C@@H]1O)Nc1cccc(C2CCCN(c3ncnc4[nH]ccc34)C2)c1 (some centres unmarked) [compound 199], the IC50 is reported as 1000 to 10000 nM. N#CNc1cc(N2CCC[C@@H](N3CCCC(Nc4cc(F)cc(Cl)c4)C3=O)C2)ncn1 (some centres unmarked) [compound 358] was tested, and the IC50 was 100 to 999 nM. N[C@@H]1CCN(c2ccccc2NC(=O)Nc2cccc(C3CCCN(c4ncnc5[nH]ccc45)C3)c2)C1 (some centres unmarked) [compound 164] gave an IC50 of 100 to 999 nM. Molecule O=C(Nc1ccccc1)Nc1cccc(C2CCCN(c3ncnc4[nH]cnc34)C2)c1 (centres unmarked) [Cmpd 103, 1-(3-(1-(9H-Purin-6-yl)piperidin-3-yl)phenyl)-3-phenylurea] has an IC50 of 100 to 999 nM. For O=C(Nc1cccc(C2CCCN(c3ncnc4[nH]ccc34)C2)c1)Nc1ccccn1 (centres unmarked) [Cmpd 29, 1-(3-(1-(7H-pyrrolo[2,3-d]pyrimidin-4-yl)piperidin-3-yl)phenyl)-3-(pyridin-2-yl)urea], the IC50 was 1000 to 10000 nM. For Nc1ncnc(N2CC[C@H](C(F)(F)F)[C@@H](N3CCC[C@H](Nc4cc(Cl)cc(Cl)c4)C3=O)C2)c1F [compound 338, trans (3S)-1′-(6-amino-5-fluoropyrimidin-4-yl)-3-(3,5-dichlorophenylamino)-4′-(trifluoromethyl)-1,3′-bipiperidin-2-one], the IC50 was 1000 to 10000 nM. In the case of O=C(Nc1cc(C2CCCN(c3ncnc4[nH]ccc34)C2)ccc1OC(F)(F)F)c1ccccc1Cl (centres unmarked) [Cmpd 86, N-(5-(1-(7H-pyrrolo[2,3-d]pyrimidin-4-yl)piperidin-3-yl)-2-(trifluoromethoxy)phenyl)-2-chlorobenzamide], the IC50 is reported as 100 to 999 nM. O=C1[C@H](Nc2ccccc2)CCN1[C@@H]1CCCN(c2ncnc3[nH]ccc23)C1 [compound 273] showed an IC50 of 100 to 999 nM. Molecule O=C(NCC1COCCO1)Nc1cccc(C2CCCN(c3ncnc4[nH]ccc34)C2)c1 (centres unmarked) [compound 214] has an IC50 of 1000 to 10000 nM. O=C(Nc1cc(C2CCCN(c3ncnc4[nH]ccc34)C2)ccc1OC(F)(F)F)C1CCCCC1 (centres unmarked) [Cmpd 87, N-(5-(1-(7H-pyrrolo[2,3-d]pyrimidin-4-yl)piperidin-3-yl)-2-(trifluoromethoxy)phenyl)cyclohexanecarboxamide] showed an IC50 of 100 to 999 nM. CNc1ncnc(N2CCC[C@@H](N3CCCC(Nc4cc(F)cc(Cl)c4)C3=O)C2)c1F (stereo partly drawn) [compound 286, (3′R)-3-(3-Chloro-5-fluorophenylamino)-1′-(5-fluoro-6-(methylamino)pyrimidin-4-yl)-1,3′-bipiperidin-2-one] gave an IC50 of 1000 to 10000 nM. Molecule Cc1c(N)ncnc1N1CCCC(c2cccc(NC(=O)Nc3ccccc3)c2)C1 (centres unmarked) [Cmpd 98, 1-(3-(1-(6-Amino-5-methylpyrimidin-4-yl)piperidin-3-yl)phenyl)-3-phenylurea] has an IC50 of 1000 to 10000 nM. O=C(Nc1cccnc1)Nc1cccc(C2CCCN(c3ncnc4[nH]ccc34)C2)c1 (centres unmarked) [Cmpd 30, 1-(3-(1-(7H-pyrrolo[2,3-d]pyrimidin-4-yl)piperidin-3-yl)phenyl)-3-(pyridin-3-yl)urea] was tested, and the IC50 was 1000 to 10000 nM. Cc1cc(NC(=O)Nc2cccc(C3CCCN(c4ncnc5[nH]ccc45)C3)c2)on1 (centres unmarked) [Cmpd 66, 1-(3-(1-(7H-pyrrolo[2,3-d]pyrimidin-4-yl)piperidin-3-yl)phenyl)-3-(3-methylisoxazol-5-yl)urea] gave an IC50 of 1000 to 10000 nM. For CN(C)[C@H]1CCN(c2ccccc2NC(=O)Nc2cccc(C3CCCN(c4ncnc5[nH]ccc45)C3)c2)C1 (some centres unmarked) [compound 192], the IC50 was 1000 to 10000 nM.

Same assay, conditions: read-out: IC50 (10 uM ATP); 10 uM ATP; in vitro Btk kinase assay, Example 41
Molecule O=C(Nc1ccccc1)Nc1cc(C2CCCN(c3ncnc4[nH]ccc34)C2)ccc1OC(F)(F)F (centres unmarked) [compound 267] has an IC50 of over 10000 nM. With Nc1ncnc(N2CCC[C@@H](N3CCCC(Nc4cc(C(F)(F)F)cc(C(F)(F)F)c4)C3=O)C2)c1F (stereo partly drawn) [compound 310, (3′R)-1′-(6-Amino-5-fluoropyrimidin-4-yl)-3-(3,5-bis(trifluoromethyl)phenylamino)-1,3′-bipiperidin-2-one] the IC50 was under 100 nM. In the case of O=C(Cc1ccccc1)Nc1cccc(C2CCCN(c3ncnc4[nH]ccc34)C2)c1 (centres unmarked) [Cmpd 9, N-(3-(1-(7H-pyrrolo[2,3-d]pyrimidin-4-yl)piperidin-3-yl)phenyl)-2-phenylacetamide], the IC50 is reported as over 10000 nM. In the case of O=C(NCC1CCC(C(F)(F)F)CC1)Nc1cccc(C2CCCN(c3ncnc4[nH]ccc34)C2)c1 (centres unmarked) [compound 257], the IC50 is reported as over 10000 nM. Work on Nc1ncnc(N2CCC[C@@H](N3CCCC(Nc4ccccc4S(=O)(=O)C4CCCCC4)C3=O)C2)c1F (stereo partly drawn) [compound 320, (3′R)-1′-(6-Amino-5-fluoropyrimidin-4-yl)-3-(2-(cyclohexylsulfonyl)phenylamino)-1,3′-bipiperidin-2-one] yielded an IC50 of under 100 nM. For CN(C(=O)Nc1ccccc1)c1cccc(C2CCCN(c3ncnc4[nH]ccc34)C2)c1 (centres unmarked) [compound 136, 1-(3-(1-(7H-Pyrrolo[2,3-d]pyrimidin-4-yl)piperidin-3-yl)phenyl)-1-methyl-3-phenylurea], the IC50 was over 10000 nM. Molecule CS(=O)(=O)N1CCN(c2ncnc3[nH]ccc23)CC1c1cccc(NC(=O)Nc2ccccc2)c1 (centres unmarked) [compound 128, 1-(3-(1-(methylsulfonyl)-4-(7H-pyrrolo[2,3-d]pyrimidin-4-yl)piperazin-2-yl)phenyl)-3-phenylurea] has an IC50 of over 10000 nM. With O=C(Nc1cccc(C2CCCN(c3ncnc4[nH]ccc34)C2)c1)Nc1ccccc1N1C[C@H](O)[C@@H](O)C1 (some centres unmarked) [compound 150] the IC50 was under 100 nM. For O=C(Nc1ccccc1)Nc1ccc(C2CCCN(c3ncnc4[nH]ccc34)C2)cc1 (centres unmarked) [compound 268], the IC50 was over 10000 nM. For O=C(Nc1ccccc1)Nc1cnc(C2CCCN(c3ncnc4[nH]ccc34)C2)s1 (centres unmarked) [compound 117, 1-(2-(1-(7H-pyrrolo[2,3-d]pyrimidin-4-yl)piperidin-3-yl)thiazol-5-yl)-3-phenylurea], the IC50 was over 10000 nM. Work on O=C(Nc1cccc(C2CCCN(c3ncnc4[nH]ccc34)C2)c1)Nc1cnccc1N1CCCC1 (centres unmarked) [compound 224] yielded an IC50 of over 10000 nM. S=C(Nc1ccccc1)Nc1cccc(C2CCCN(c3ncnc4[nH]ccc34)C2)c1 (centres unmarked) [Cmpd 67, 1-(3-(1-(7H-pyrrolo[2,3-d]pyrimidin-4-yl)piperidin-3-yl)phenyl)-3-phenylthiourea] was tested, and the IC50 was over 10000 nM. Molecule O=C(NCC1CCCNC1)Nc1cccc(C2CCCN(c3ncnc4[nH]ccc34)C2)c1 (centres unmarked) [compound 229] has an IC50 of over 10000 nM. With O=S(=O)(Nc1cccc(C2CCCN(c3ncnc4[nH]ccc34)C2)c1)c1ccccc1 (centres unmarked) [Cmpd 68, N-(3-(1-(7H-pyrrolo[2,3-d]pyrimidin-4-yl)piperidin-3-yl)phenyl)benzenesulfonamide] the IC50 was over 10000 nM. Work on O=C(Nc1cccc(C2CCCN(c3ncnc4[nH]ccc34)C2)c1)c1c(Cl)cccc1Cl (centres unmarked) [Cmpd 10, N-(3-(1-(7H-pyrrolo[2,3-d]pyrimidin-4-yl)piperidin-3-yl)phenyl)-2,6-dichlorobenzamide] yielded an IC50 of over 10000 nM. For Nc1ncnc(N2CC[C@H](F)[C@H](N3CCC[C@H](Nc4cc(F)cc(Cl)c4)C3=O)C2)c1F [compound 343, (3S,3′R,4′S)-1′-(6-amino-5-fluoropyrimidin-4-yl)-3-(3-chloro-5-fluorophenylamino)-4′-fluoro-1,3′-bipiperidin-2-one], the IC50 was over 10000 nM. Nc1ncnc(N2CCC[C@@H](N3CCCC[C@@H](Nc4cc(F)cc(Cl)c4)C3=O)C2)c1F [compound 346, (R)-1-((R)-1-(6-amino-5-fluoropyrimidin-4-yl)piperidin-3-yl)-3-(3-chloro-5-fluorophenylamino)azepan-2-one] showed an IC50 of under 100 nM. O=C(Nc1cccc(C2CCCN(c3ncnc4[nH]ccc34)C2)c1)Nc1c(Cl)cccc1N1CCCC1 (centres unmarked) [Cmpd 50, 1-(3-(1-(7H-pyrrolo[2,3-d]pyrimidin-4-yl)piperidin-3-yl)phenyl)-3-(2-chloro-6-(pyrrolidin-1-yl)phenyl)urea] showed an IC50 of under 100 nM. With C[C@H]1CCN(c2ncnc(N)c2F)C[C@@H]1N1CCCC(Nc2cccc(Cl)c2)C1=O (stereo partly drawn) [compound 282, trans-1′-(6-Amino-5-fluoropyrimidin-4-yl)-3-(3-chlorophenylamino)-4′-methyl-1,3′-bipiperidin-2-one] the IC50 was under 100 nM. With Nc1ncnc(N2CC[C@@H](C(F)(F)F)[C@H](N3CC=CC[C@@H](Nc4cc(F)cc(Cl)c4)C3=O)C2)c1F [compound 350] the IC50 was under 100 nM. For O=C(NCC1CCS(=O)(=O)C1)Nc1cccc(C2CCCN(c3ncnc4[nH]ccc34)C2)c1 (centres unmarked) [compound 247], the IC50 was over 10000 nM. COc1c(N)ncnc1N1CCCC(c2cccc(NC(=O)Nc3ccccc3)c2)C1 (centres unmarked) [Cmpd 97, 1-(3-(1-(6-Amino-5-methoxypyrimidin-4-yl)piperidin-3-yl)phenyl)-3-phenylurea] was tested, and the IC50 was over 10000 nM. In the case of O=C1C(Nc2cc(Cl)cc(Cl)c2)CCCN1[C@H]1CN(c2ncnc3[nH]ccc23)CC[C@@H]1C(F)(F)F (stereo partly drawn) [compound 339, trans-3-(3,5-Dichlorophenylamino)-1′-(7H-pyrrolo[2,3-d]pyrimidin-4-yl)-4′-(trifluoromethyl)-1,3′-bipiperidin-2-one], the IC50 is reported as under 100 nM. In the case of C[C@@H]1CCCN1c1cccc(F)c1NC(=O)Nc1cccc(C2CCCN(c3ncnc4[nH]ccc34)C2)c1 (stereo partly drawn) [Cmpd 52, 1-(3-(1-(7H-pyrrolo[2,3-d]pyrimidin-4-yl)piperidin-3-yl)phenyl)-3-(2-fluoro-6-((R)-2-methylpyrrolidin-1-yl)phenyl)urea], the IC50 is reported as under 100 nM.

— patent US9790229B2, “Bruton's tyrosine kinase inhibitors” (priority 2009, dated 2017)
